Measurements from US11707448B2, “Combination therapies for the treatment of cancer” (Eisai R&D Management Co., Ltd., priority 2014, dated 2023).

What was measured:
[1] = tested on: CT26 tumors; test: CT26 subcutaneous tumor model, ER-886046 with radiation; type: in vivo, mice
Method: FIG. 1A to FIG. 1B. […] Panel shown in FIG. 1A) Average tumor sizes of the CT26 tumor-bearing mice that received 9 Gy radiation+ER-886046, 9 Gy radiation alone, or vehicle alone. Panel shown in FIG. 1B) Average animal body weight of the CT-26 tumor-bearing mice. Radiation treatment: 9 Gy single dose on day 9; ER-886046 dosing: 150 mg/kg, oral (po) administration daily from day 9 to day 32. Administration of radiation and ER-886046 to the tumor-bearing mice is indicated by the arrows and bars, respectively. N=10-12 per group. *, p<0.05, student t-test.
FIG. 2A to FIG. 2C. Tumor growth plots of the individual CT-26 tumors treated with radiation/ER-886046 or radiation alone. The animals are of the experiment described in FIG. 1A and FIG. 1B. Panel shown in FIG. 2A) Vehicle treatment group. Panel shown in FIG. 2C) Radiation plus ER-886046. N=10-12 per group. […] Radiation treatment: 9 Gy single dose on day 9; ER-886046 dosing: 150 mg/kg, oral (po) administration daily from day 9 to day 32. Each line represents an individual animal.
FIG. 3. Improved tumor growth suppression and animal survival by low dose radiation/ER-886046 compared with low dose radiation alone. Plots of animal survival status among indicated treatment groups. Radiation treatment: 3 Gy single dose on day 17; ER-886046 dosing: 150 mg/kg, po administration daily from days 17 to 45. […] N=10 per group. *, p<0.05; ***, p<0.001; Gehan-Breslow-Wilcoxon test.
Animal studies; In vitro cultured cancer cells were harvested and suspended in 100 μl of phosphate buffered saline at a cell concentration of 1.0×10^5 cells/ml and subcutaneously (sc) injected into the mice using a 26 g syringe on day 0. At the days post cell implantation as indicated in the figures, the mice were randomized based on the tumor size followed by treatments with radiation at 3 or 9 Gy dose per treatment, anti-PDL1 at 200 μg/mouse per intraperitoneal injection (ip), or anti-CTLA4 at 200 or 100 μg/mouse per ip injection with or without orally administration of ER-886046 at a dose of 150 mg/kg. The animals that were assigned to the treatment groups in individual study had close mean tumor weights in all groups. The tumor sizes were measured twice a week by a digital caliper (Mitutoyo Corp), and the volume was calculated using the formula (1×w^2)/2=mm^3, where 1 and w refer to the larger and smaller perpendicular dimensions collected at each measurement. Graphs of group tumor sizes (mean±SEM) and body weights (mean±SEM) versus time were plotted using software GraphPad Prism 6 (Lake Forest, Calif.). Student t-test and Gehan-Breslow-Wilcoxon test were used for statistical analysis.

[2] = tested on: immune cells in the CT26 tumors; test: Flow cytometry of intratumoral immune cells in CT26 tumors; type: in vivo, mice
Method: FIG. 7A to FIG. 7B. Radiation and ER-886046 worked synergistically to modify the intratumoral immunity. Panel shown in FIG. 7A) Quantification of myeloid cells (CD11b^+) and cytotoxic T cells (CD8^+) in the CT26 tumors that received 9 Gy alone, 9 Gy+ER-886046, or vehicle alone. Panel shown in FIG. 7B) Quantification of myeloid-derived suppressor cells (MDSC cells, CD11b^+Gr1^+) in the tumors. Radiation was given once to the tumors on the day of randomization, while ER-886046 was administered po daily administrated at 150 mg/kg to the animals for 7 consecutive days after randomization. The tumors were analyzed by flow cytometry one day after the last dose of ER-886046. **, p<0.01; ns, not significant; student t-test.
Flow cytometry; CT26 tumors with or without treatments received were surgically resected and minced by physical pressure, followed by digestion with collagenase I at 1 mg/ml at 37° C. for 1 h. The single cell mixtures from the digestion were labelled by incubation with fluorescent antibodies against immune cell antigens and analysed by flow cytometry. Cell population calculation was performed by software FlowJo 7.6.

[3] = tested on: CT26 cells; test: Rechallenge of cured (tumor-free) mice with CT26 cells; type: in vivo; details: mice cured by ER-886046 + radiation
Source text: FIG. 4A to FIG. 4C. Long lasting anti-tumor effect with a memory immune response by ER-886046/radiation treatment. Panel shown in FIG. 4A) Tumor growth in the cured mice by ER-886046 and radiation combination treatment or in the naïve Ba1B/c mice that received injection of CT26 cells. Panel shown in FIG. 4B) Tumor growth of secondarily challenged CT-26 tumors in the cured mice or in naïve mice. Panel shown in FIG. 4C) Growth of 4T1 tumors in cured mice or in naïve mice. N=9-10. Note the complete rejection of challenged CT-26 tumor and reduced growth of challenged 4T1 tumors in the combination cured mice. ***, p<0.001. 2 tailed student t-test. Note that no treatment was applied to any animals.
In case of tumor rechallenge of tumor-free mice after treatments, CT26 cells and 4T1 cells were individually sc injected into the different flanks of the same mouse, and the growth of each tumor was measured and graphed as described above. Naïve mice that received neither cancer cell injection nor drug treatment were included as controls. […] At the end of study on day 27, the mice in all treatment groups were intranasally administered luciferin and the lungs were resected and analysed for luciferase expression using IVIS instrument. Quantification of the luciferase activity in the lungs was achieved by software Living Image.

[4] = ER-886046 150 mg/kg po daily day 9-32 + radiation 9 Gy single dose day 9

C[C@H](NC(=O)c1c(C(F)F)nn(C)c1Oc1cccc(C(F)(F)F)c1)c1ccc(C(=O)O)cc1 [ER-886046]
gross health and animal body weight compared to radiation alone ([1]; ER-886046 150 mg/kg po daily added to 9 Gy radiation): did not impact the gross health and animal body weight
tumors with fast progression ([1]; ER-886046 150 mg/kg po daily day 9-32 + radiation 9 Gy): 1 out of 12
anti-tumor activity compared to radiation alone [1, 4]: statistically significantly improved
tumor growth (average tumor size) [1, 4]: sustained tumor growth inhibition until the end of the study on day 49
cure (complete tumor regression) ([1]; ER-886046 150 mg/kg po daily day 9-32 + radiation 9 Gy, end of study): 9 out of 12
animal survival ([1]; ER-886046 150 mg/kg po daily days 17-45 + low dose radiation 3 Gy single dose day 17, vs vehicle or radiation alone): significantly increased the animal survival
tumor recurrence in the 9 tumor-free mice ([1]; cured by ER-886046 + radiation, followed for an additional 2 months): no tumor recurrence
ratio of Gr1+ cells among CD45+CD11b+ cells (MDSC) ([2]; ER-886046 150 mg/kg po daily 7 days + 9 Gy radiation, vs vehicle or radiation alone): reduced the ratio of Gr1^+ cells among CD45^+CD11b^+ cells
tumor infiltration frequency of CD8+ T cells and CD11b+ myeloid cells ([2]; ER-886046 150 mg/kg po daily 7 days added to 9 Gy radiation, vs radiation alone): no additional significant effect
tumor growth after secondary CT26 challenge ([3]; 1.5 months after the first challenge): did not produce detectable tumor
tumor growth after CT26 challenge at another site ([3]; monitored 1.5 months, no further treatment): did not grow tumors at all
